In patent US20210255193A1, “LYSINE REACTIVE PROBES AND USES THEREOF” (The Scripps Research Institute, priority 2017, published 2021):

Tests used:
Experiment in all cases: competitive isoTOP-ABPP
[1] = target: T1, ABCE1 ATP-binding cassette sub-family E member 1 (Homo sapiens, UniProt P61221); conditions: 50 uM, in vitro; for isoTOP-ABPP reactivity ratio at lysine P61221_K478 / isoTOP-ABPP reactivity ratio at lysine P61221_K191: 231 sol; for isoTOP-ABPP ratio (R) at liganded lysine P61221_K191 / isoTOP-ABPP ratio (R) at liganded lysine P61221_K478: sol, 231
T1 construct: isoTOP-ABPP experiments performed in cell lysates (in vitro); endogenous in cells; host or cells: soluble proteome of human cancer cell lines (MDA-MB-231, Ramos, Jurkat)
Description: (§1) In vitro covalent fragment treatment for isoTOP-ABPP. All compounds were made up as solutions in DMSO (100×) and were used at a final concentration of 50 μM for activated esters and 100 μM for guanidinylating agents. For each profiling sample, 0.5 ml of lysate was treated with 5 μl of the 100× compound stock solution or 5 μl of DMSO. Samples were treated with activated esters for
(§2) STP-alkyne labeling and click chemistry. For concentration-dependent reactivity measurements by isoTOP-ABPP, 0.5 ml proteome aliquots were treated at ambient temperature with 1 mM STP-alkyne 1 (5 μl of 100 mM stock in DMSO) and 0.1 mM STP alkyne 1 (5 μl of 10 mM stock in DMSO), respectively. For competitive isoTOP-ABPP, after in vitro fragment treatment (detailed above), the samples were labeled for 1 h at ambient temperature with 0.1 mM STP-alkyne 1 (5 μl of 10 mM stock in DMSO). Samples were conjugated by copper-mediated azide-alkyne cycloaddition (CuAAC) to either the light (1 mM STP-alkyne or fragment treated) or heavy (0.1 mM STP-alkyne or DMSO treated) TEV tags (10 μl of 5 mM stocks in DMSO, final concentration=100 μM) using tris(2-carboxyethyl)phosphine hydrochloride
(§3) R value calculation and processing. The ratios of light and heavy MS1 peaks for each unique peptide were quantified with a CIMAGE software using default parameters (3 MS1 acquisitions per peak and signal to noise threshold set to 2.5). For reactivity measurements by isoTOP-ABPP, the R value was calculated from the ratio of MS1 peak areas, comparing the 1 mM STP alkyne sample (light TEV tag) with the 0.1 mM STP alkyne sample (heavy TEV tag). For competitive isoTOP-ABPP, the R value was calculated from the ratio of MS1 peak areas, comparing the DMSO treated sample (heavy TEV tag) with the compound treated sample (light TEV tag). […] Ratios for unique peptide entries are calculated for each experiment; overlapping peptides with the same modified lysine (for example, different charge states, MudPIT chromatographic steps or tryptic termini) are grouped together and the median ratio is reported as the final ratio (R). The peptide ratios reported by CIMAGE were further filtered to ensure the removal or correction of low-quality ratios in each individual data set. The quality filters applied were the following: removal of half tryptic peptides; for ratios with high standard deviations from the median (90% of the median or above) the lowest ratio was taken instead of the median; removal of peptides with R=20 and only a single MS2 event triggered during the elution of the parent ion; manual annotation of all the peptides with ratios of 20, removing any peptides with low quality elution profiles that remained after the previous curation steps (only done for competitive isoTOP-ABPP).
(§4) Cross-data processing for fragment screening. For compound treated samples, biological replicates of the same condition were averaged, if the standard deviation was below 60% of the mean; otherwise, for lysines with at least one R value <4 for a particular compound, the lowest value of the ratio set was taken. For lysines, where all R values for a particular compound were ≥4, the average was reported. For peptides containing several possible modified lysines, the lysine with the highest number of quantification events was used for analysis and the remaining, redundant peptides were reported as alternative modification sites. Peptides included in the aggregate dataset (those used for further bioinformatics and statistical analyses) were required to have been quantified in 2 experiments for competitive isoTOP-ABPP. Lysines were categorized as liganded, if they had at least one ratio R≥4 (hit fragments). For liganded lysines with R=20 for all liganding events, lysines were required to have been quantified with R=20 in two separate experiments and were further required to have been quantified with R<20 in one additional experiment.

[2] = target: T2, ABHD10 Abhydrolase domain-containing protein 10, mitochondrial (Homo sapiens, UniProt Q9NUJ1); assay type: binding; design: key to isoTOP-ABPP reactivity ratio at lysine Q9NUJ1_K185: R = MS1 peak area ratio, DMSO (heavy) / compound-treated (light); capped at 20; conditions: 50 uM, in vitro; for isoTOP-ABPP reactivity ratio at lysine Q9NUJ1_K185: 231 sol; for isoTOP-ABPP ratio (R) at liganded lysine Q9NUJ1_K185: sol, 231
T2 construct: endogenous in cells; host or cells: MDA-MB-231 lysate
T2 sequence (Q9NUJ1 53-306): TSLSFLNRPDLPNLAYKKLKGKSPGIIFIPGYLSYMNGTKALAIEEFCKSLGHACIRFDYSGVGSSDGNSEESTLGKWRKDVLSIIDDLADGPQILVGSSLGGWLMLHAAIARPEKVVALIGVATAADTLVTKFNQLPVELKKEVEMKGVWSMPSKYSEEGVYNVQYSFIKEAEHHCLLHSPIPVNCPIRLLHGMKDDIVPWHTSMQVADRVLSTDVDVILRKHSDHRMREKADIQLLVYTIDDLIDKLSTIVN
Description: as §1, §2, §3, §4

[3] = target: T3, NUDT2 Bis(5-nucleosyl)-tetraphosphatase (Homo sapiens, UniProt P50583); assay type: binding; design: key to isoTOP-ABPP reactivity ratio at lysine P50583_K89: R = MS1 peak area ratio, DMSO (heavy) / compound-treated (light); conditions: 50 uM, in vitro; for isoTOP-ABPP reactivity ratio at lysine P50583_K89: 231 sol; for isoTOP-ABPP ratio (R) at liganded lysine P50583_K89: sol, 231
T3 construct: isoTOP-ABPP experiments performed in cell lysates (in vitro); endogenous in cells
Description: as §1, §2, §3, §4

[4] = target: T4, ISOC2 Isochorismatase domain-containing protein 2, mitochondrial (Homo sapiens, UniProt Q96AB3); assay type: binding; design: key to isoTOP-ABPP reactivity ratio at lysine Q96AB3_K178: R = MS1 peak area ratio, DMSO (heavy) / compound-treated (light); capped at 20; conditions: 50 uM, in vitro; for isoTOP-ABPP reactivity ratio at lysine Q96AB3_K178: 231 sol; for isoTOP-ABPP ratio (R) at liganded lysine Q96AB3_K178: sol, 231
T4 construct: isoTOP-ABPP experiments performed in cell lysates (in vitro); endogenous in cells; host or cells: soluble proteome of human cancer cell lines (MDA-MB-231; Ramos and Jurkat also prepared)
T4 sequence (Q96AB3 1-205): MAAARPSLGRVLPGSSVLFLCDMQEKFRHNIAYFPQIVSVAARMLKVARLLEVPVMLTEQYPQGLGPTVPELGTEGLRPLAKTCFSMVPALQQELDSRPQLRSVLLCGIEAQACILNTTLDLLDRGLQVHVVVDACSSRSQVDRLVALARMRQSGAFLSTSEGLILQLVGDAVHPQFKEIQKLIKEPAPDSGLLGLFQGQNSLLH
Description: as §1, §2, §3, §4

[5] = target: T5, MAP1LC3B Microtubule-associated proteins 1A/1B light chain (Homo sapiens, UniProt Q9GZQ8); assay type: binding; design: key to isoTOP-ABPP reactivity ratio at lysine Q9GZQ8_K51: R = MS1 peak area ratio, DMSO (heavy) / compound-treated (light); conditions: 50 uM, in vitro; for isoTOP-ABPP reactivity ratio at lysine Q9GZQ8_K51: 231 sol; for isoTOP-ABPP ratio (R) at liganded lysine Q9GZQ8_K51: sol, 231
T5 construct: isoTOP-ABPP experiments performed in cell lysates (in vitro); endogenous in cells; host or cells: soluble proteome of human cancer cell lines (MDA-MB-231; Ramos and Jurkat also prepared)
Description: as §1, §2, §3, §4

T3 sequence (P50583 whole entry): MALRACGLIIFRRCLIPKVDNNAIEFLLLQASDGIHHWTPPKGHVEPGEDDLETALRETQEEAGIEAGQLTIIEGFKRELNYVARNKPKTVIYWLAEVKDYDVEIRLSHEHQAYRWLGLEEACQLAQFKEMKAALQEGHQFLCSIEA

Structure (SMILES)	isoTOP-ABPP reactivity ratio at lysine P61221_K478 [1]	isoTOP-ABPP reactivity ratio at lysine Q9NUJ1_K185 [2]	isoTOP-ABPP reactivity ratio at lysine P50583_K89 [3]	isoTOP-ABPP reactivity ratio at lysine Q96AB3_K178 [4]	isoTOP-ABPP reactivity ratio at lysine Q9GZQ8_K51 [5]	isoTOP-ABPP reactivity ratio at lysine P61221_K191 [1]	isoTOP-ABPP ratio (R) at liganded lysine P61221_K191 [1]	isoTOP-ABPP ratio (R) at liganded lysine P61221_K478 [1]	isoTOP-ABPP ratio (R) at liganded lysine Q9NUJ1_K185 [2]	isoTOP-ABPP ratio (R) at liganded lysine P50583_K89 [3]	isoTOP-ABPP ratio (R) at liganded lysine Q96AB3_K178 [4]	isoTOP-ABPP ratio (R) at liganded lysine Q9GZQ8_K51 [5]
CCn1cc(C(=O)Oc2c(F)c(F)c(F)c(F)c2F)c(=O)c2ccc(C)nc21 [fragment 28, Pentafluorophenyl 1-ethyl-7-methyl-4-oxo-1,4-dihydro-1,8-naphthyridine-3-carboxylate]	1.0	1.2	1.0	1.8	1.0	–	–	–	–	–	–	–
O=C(CCc1cn(-c2ccccc2)nc1-c1ccccc1)Oc1ccc([N+](=O)[O-])cc1[N+](=O)[O-] [fragment 29, 2,4-Dinitrophenyl 3-(1,3-diphenyl-1H-pyrazol-4-yl)propanoate]	1.2	1.3	1.0	1.7	0.8	1.0	–	–	–	–	–	–
O=C(Oc1ccc([N+](=O)[O-])cc1[N+](=O)[O-])C(c1ccccc1)c1ccccc1 [fragment 30, 2,4-Dinitrophenyl 2,2-diphenylacetate]	1.1	2.4	1.1	1.0	1.2	1.1	–	–	–	–	–	–
O=C(Oc1ccc([N+](=O)[O-])cc1[N+](=O)[O-])c1cc(C(F)(F)F)cc(C(F)(F)F)c1 [fragment 31, 2,4-Dinitrophenyl 3,5-bis(trifluoromethyl)benzoate]	1.1	4.4	0.8	2.1	1.1	1.4	–	–	–	–	–	–
Cn1cc(CC(=O)Oc2ccc([N+](=O)[O-])cc2[N+](=O)[O-])c2ccccc21 [fragment 32, 2,4-Dinitrophenyl 2-(1-methyl-1H-indol-3-yl)acetate]	1.2	1.4	3.7	1.1	0.9	1.3	–	–	–	–	–	–
COc1cc(CCC(=O)Oc2ccc([N+](=O)[O-])cc2[N+](=O)[O-])cc(OC)c1OC [fragment 33, 2,4-Dinitrophenyl 3-(3,4,5-trimethoxyphenyl)propanoate]	1.2	2.1	1.9	9.1	0.8	1.1	–	–	–	–	–	–
O=C(Oc1ccc([N+](=O)[O-])cc1[N+](=O)[O-])C1CCN(C(=O)OCc2ccccc2)CC1 [fragment 34, 1-Benzyl 4-(2,4-dinitrophenyl) piperidine-1,4-dicarboxylate]	–	–	–	–	–	–	1.0	1.2	1.5	1.0	1.1	1.0
O=C(Oc1ccc([N+](=O)[O-])cc1[N+](=O)[O-])c1ccc2ccccc2n1 [fragment 35, 2,4-Dinitrophenyl quinoline-2-carboxylate]	–	–	–	–	–	–	1.1	1.1	1.3	1.6	1.3	1.0
O=C(CCc1coc2cc(F)ccc2c1=O)Oc1ccc([N+](=O)[O-])cc1[N+](=O)[O-] [fragment 36, 2,4-Dinitrophenyl 3-(7-fluoro-4-oxo-4H-chromen-3-yl)propanoate]	–	–	–	–	–	–	1.0	1.1	1.4	0.9	1.7	0.8
O=C(Oc1ccc([N+](=O)[O-])cc1[N+](=O)[O-])c1ccc(-c2ccccc2)cc1 [fragment 37, 2,4-Dinitrophenyl [1,1′-biphenyl]-4-carboxylate]	–	–	–	–	–	–	0.9	1.0	1.2	1.4	0.9	0.9
